The results in this text go back to patent publication US6348317B1, “Fluorescent and DNA cleavage properties of peptide/dye conjugates” (The Arizona Board of Regents, priority 1999, dated 2002).

A value given as a limit tells only on which side of the number the result lay.

This test concerns GRE3 dsDNA. The experiment in a line: Photocleavage at 514 nm, PAGE analysis. The class given is biochemical. As for the experimental part:
The purified DNA strands shown in FIG. 2 were 5′^-32P-end-labeled using T4 polynucleotide kinase and purified as described above. Oxygen removal was performed by bubbling argon through the samples. Irradiations were performed on […] samples in a 1.0 mL glass cuvette fit with a septum using an argon-ion laser at 514 nm with a power of 300 mW/cm^2. After irradiation, samples were divided in half and one portion treated with piperidine, the other immediately frozen. Piperidine treatment consisted of adding an equal volume of freshly prepared 20% piperidine in water to the sample followed by heating at 90° C. for 30 minutes. Both the treated and untreated fractions were dried under vacuum. To each dried sample was added […] of 80% formamide in water. The products of the photocleavage experiments were analyzed on a 15% polyacrylamide (19:1) vertical sequencing gel with dimensions 21 cm×40 cm×0.4 mm. Maxam-Gilbert A+G and C+T sequencing reactions were used as a reference. A. M. Maxam, et al., Meth. Enzymol. 65:499-560 (1980). Gels were run at 2000V for 1.5-2 hours. Gels were dried and exposed to a phosphorimaging screen for 4 hours and analyzed on a Molecular Dynamics Storm-840 gel scanner in phosphorimaging mode.
Photocleavage of TO-ZF conjugate. We examined the photoinduced cleavage of 5′-32P-end-labeled dsDNA fragments containing the dsDNA sequences GRE1, GRE2 and GRE3 in the presence of either unconjugated TO or TO-ZF. […] We have performed similar photocleavage measurements of the complementary strands in the dsDNA duplexes used in each case. […] After irradiation of TO-ZF bound to dsDNA in Tris buffer solution at 514 nm (514 nm is in the main band of the absorbance spectrum of intercalated thiazole orange as shown in FIG. 3), the photo-products were denatured and separated using denaturing polyacrylamide gel electrophoresis (PAGE). […]
To explore other possible mechanisms of thiazole orange mediated photocleavage in the region on the 5′-side of the GRE target sequence, the guanine located within the GRE (5′-TGTTCT-3′) in the GRE1 dsDNA fragment was changed to an adenine to give GRE3 (FIG. 2). […] Fluorescence measurements of TO-ZF binding to GRE1 and GRE3 target sequences (FIG. 5A) show only a modest difference in the dissociation constant between the two sequences. Thus the measured changes in the photocleavage products between GRE1 and GRE3 are not an artifact of strong differences in the binding affinity of TO-ZF between these sequences. […] The total chemical yield of the piperidine dependent reactions in these bands, measured as the number of fluorescence counts in product bands divided by the total counts of a given lane, increased three-fold from 2% in GRE1 (described above) to 6% in GRE3 for samples reacted in the presence of oxygen. […]

With “TO-ZF: 29 amino acid single zinc finger from residues 438-465 of glucocorticoid receptor, thiazole orange coupled to a lysine ε-amine”, for the setting “514 nm, gel electrophoresis”, the “pattern of photo-induced cleavage” value is listed as “a confined group of bands flanking the altered GRE sequence which are only partially piperidine dependent”. For the same substance, the “increase in band intensity of strand cleavage in the presence of D2O” value (D2O rather than H2O in the buffer) was ≤ 25%. Besides, the “lowering of chemical yield in the absence of oxygen” value (piperidine treated samples, absence of oxygen) is recorded as 10-20%. For the setting “samples reacted in the presence of oxygen”, the “total chemical yield of the piperidine dependent reactions” value worked out at 6%.
